US6294568A, “5-arylpyrrole derivatives” (priority 1997, dated 2001)

Legend:
[1] = tested on: carrageenan footedema; test: Carrageenan Footedema Suppression Test; assay type: in vivo, SD rats; settings: oral; paw volume three hours after carrageenan administration
Method: The carrageenin footedema suppression test was conducted according to the method of Winter et al. (J. Pharm. Exp. Ther., Vol.141, 369 (1963)). The test samples suspended in Tween 80 were administered orally to SD rats (6 rats per 1 group) in an amount of 1 ml per 100 g of the body weight, while only the solvent was administered in the same manner as above as a control. One hour after the administration, 1% carrageenan physiological saline was injected subcutaneously to the rats in the plantar area of the right hind paw. Three hours after the carrageenan administration, the paw volumes were measured and the edematization rate (%) was calculated with Formula 1 and then edematization suppression rate (%) was calculated with Formula 2.
Edematization rate (%)=((paw volume after carrageenan injection- paw volume before carrageenan injection)/(paw volume before carrageenan injection)×100 Formula: 1
Edematization suppression rate (%)=((edematization rate of control-
edematization rate of test samples)/edematization rate of […]

[2] = target: T1, Human COX-1 (Homo sapiens, UniProt P23219); test: Human COX-1 Inhibitory Activity Test (TXB2 in blood); assay type: cell-based; settings: IC50 from Hill Plot
T1 construct: endogenous in cells; host or cells: whole blood of a healthy human donor (own knowledge: TXB2 of clotting blood comes from platelet COX-1)
T1 sequence (P23219 24-599): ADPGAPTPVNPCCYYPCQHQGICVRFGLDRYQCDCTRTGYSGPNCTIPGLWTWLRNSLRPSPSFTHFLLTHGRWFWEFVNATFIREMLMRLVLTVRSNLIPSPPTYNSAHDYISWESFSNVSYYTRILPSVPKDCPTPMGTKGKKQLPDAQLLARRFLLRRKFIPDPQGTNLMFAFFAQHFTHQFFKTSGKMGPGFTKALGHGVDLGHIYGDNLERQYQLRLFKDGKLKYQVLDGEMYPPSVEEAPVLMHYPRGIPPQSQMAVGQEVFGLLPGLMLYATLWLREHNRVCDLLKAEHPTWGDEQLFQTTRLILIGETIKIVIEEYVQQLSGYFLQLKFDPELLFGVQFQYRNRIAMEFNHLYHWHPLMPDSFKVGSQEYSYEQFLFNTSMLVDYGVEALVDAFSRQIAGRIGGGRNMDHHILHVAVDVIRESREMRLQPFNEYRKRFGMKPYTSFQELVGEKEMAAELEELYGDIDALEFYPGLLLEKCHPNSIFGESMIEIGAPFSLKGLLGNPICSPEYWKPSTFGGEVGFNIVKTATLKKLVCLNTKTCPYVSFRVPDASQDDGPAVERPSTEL
Method: (§1) COX-1 and COX-2 activities were measured according to the method of Patrignani et al. (J. Pharm. Exp. Ther. Vol. 271, 1705 (1994)).
(1) COX-1 activity was measured in the following procedure. […] The serum obtained by 10 minutes of centrifugation at 2000 rpm at 4° C. was stored at -40° C. until the measurement of the amount of thromboxane B2 (TXB2). The test samples, which had been dissolved in ethanol and diluted to the specified concentrations, were previously dispensed into the glass test tubes, and the solvent was evaporated to dryness by Centrifugal Vaporizer (CVE-200D, manufactured by Tokyo Rika Mfg. Co., Ltd.) so that the test samples were added to the plasma.
(3) The measurement for the TXB2 content was conducted in the following procedure. In a part of a 96 well plate coated with anti-rabbit IgG antibody, 2 wells were allotted respectively to blank well, Non-specific Binding (NSB) well, Maximum Binding (B0) well, standard wells at 7 concentrations of TXB2 (1000 pg/ml) in doubling dilution ranging from 1000-15.6 pg/ml. The rest of the wells were used for the measurement of the samples. EIA buffer was added to the NSB wells (100 μl ) and B0 wells (50 μl), respectively. 50 μl of each of the standard dilution was added in an order from thinner to thicker concentrations. Each of the samples was added to the rest of the wells in an amount of 50 μl. Then, 50 μl of TXB2 tracer was added to each of the wells except for the blank wells. Further, 50 μl of TXB2 antibody was added to each of the wells except for the NSB wells and blank wells, then the well plate was covered with a plastic film and the reaction continued for 18 hours at room temperature. When the reaction was terminated, the wells were washed 5 times with a wash buffer. 200 μl of Elman's reagent was added to each of the wells and then the well plate was covered with a plastic film and developed for 60 minutes in a dark place. The absorbance at 405 nm was measured by an Immuno Reader (NJ-2000, manufactured by Nippon Intermed Co., Ltd.). From the measurement result, %B/B0 was calculated and, applying it to the approximation formula of Hill Plot, the concentration of the samples was determined to be 2,000 times concentration. […]

[3] = target: T2, Human COX-2 (Homo sapiens, UniProt P35354); test: Human COX-2 Inhibitory Activity Test (LPS-induced PGE2 in blood); assay type: cell-based; settings: for IC50: human blood, LPS, PGE2, IC50 from Hill Plot; for COX-1/COX-2: ratio of IC50 COX-1 to COX-2
T2 construct: endogenous in cells; host or cells: heparinised whole blood of a healthy human donor pretreated with aspirin, stimulated with LPS (own knowledge: COX-2 is induced in monocytes)
T2 sequence (P35354 18-604): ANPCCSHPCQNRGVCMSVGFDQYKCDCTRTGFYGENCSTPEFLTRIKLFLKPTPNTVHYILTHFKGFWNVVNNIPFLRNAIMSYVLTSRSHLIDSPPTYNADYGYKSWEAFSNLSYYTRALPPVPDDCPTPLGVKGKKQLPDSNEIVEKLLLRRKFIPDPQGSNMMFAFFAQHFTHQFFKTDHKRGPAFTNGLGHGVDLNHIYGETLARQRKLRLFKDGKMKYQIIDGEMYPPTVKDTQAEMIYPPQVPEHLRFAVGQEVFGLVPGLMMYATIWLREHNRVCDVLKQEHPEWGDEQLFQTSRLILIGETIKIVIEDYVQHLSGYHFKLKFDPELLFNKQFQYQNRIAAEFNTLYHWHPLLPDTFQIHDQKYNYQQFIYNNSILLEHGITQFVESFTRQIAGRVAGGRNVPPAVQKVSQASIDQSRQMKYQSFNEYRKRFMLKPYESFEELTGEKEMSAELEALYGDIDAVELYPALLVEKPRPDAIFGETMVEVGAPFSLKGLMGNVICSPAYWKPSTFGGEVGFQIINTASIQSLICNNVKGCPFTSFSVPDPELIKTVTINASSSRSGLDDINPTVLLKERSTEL
Method: as §1
(2) COX-2 activity was measured in the following procedure. To blood collected from a healthy normal who had taken 330 mg of aspirin 48 hours before the blood collection in order to inhibit the COX-1 activity, 10 unit/ml of sodium heparin was added, and then pipetted into glass test tubes by 1 ml. 10 μg/ml of Lipopolysaccharide (LPS) was added thereto and the plasma obtained by the specified operation was stored at -40° C. until the measurement for the amount of prostaglandin E2 (PGE2). Test samples containing the test samples were treated in the same manner of operation as described above.
(4) The measurement for the PGE2 content was conducted in the following procedure. In a part of 96 well plate coated with goat anti-mouse antibody, 2 wells were alloted respectively to a blank well, Non-specific Binding (NSB) well, Maximum Binding (B0) well, standard wells at seven concentrations of PGE2 (1000 pg/ml) in doubling dilution ranging from 1000-15.6 pg/ml. The rest of the wells were used for the sample measurement. EIA buffer was added to the NSB wells (100 μl) and to the B0 wells (50 μl), respectively. 50 μl of each of the standard dilution was added in an order from thinner to thicker concentrations. Each of the samples was added to the rest of the wells in an amount of 50 μl. Then, 50 μl of PGE2 tracer was added to each of the wells except for blank wells. Further, 50 μl PGE2 monoclonal antibody was added to each of the wells except for the NSB wells and blank wells, then the well plate was covered with a plastic film and the reaction continued at room temperature for 18 hours. When the reaction was terminated, the wells were washed 5 times with a wash buffer. 200 μl of Elman's reagent was added to each of the wells, and then the well plate was covered with a plastic film and developed for 60 minutes in a dark place. The absorbance at 405 nm was measured by an Immuno Reader (NJ-2000, manufactured by Nippon Intermed Co., Ltd.). From the measurement result, %B/B0 was calculated and, applying it to the approximation formula of Hill Plot, the concentration of the samples was determined to be 40 times concentration. The dilution was conducted with an EIA buffer throughout the Test Example 3.

Row | Structure (SMILES) | Edematization Suppression rate [1] | IC50 [2] | IC50 [3] | COX-1/COX-2 [3]
1 | COc1ccc(-c2cc(C)[nH]c2-c2ccc(OC)cc2)cc1 [Control compound (a), 4,5-bis(4-methoxyphenyl)-2-methyl-1H-pyrrole, reference compound] | 23.4% | 0.001 µM | 4820 nM | < 0.1
2 | Cc1cc(-c2cccc(Cl)c2)c(-c2ccc(S(C)(=O)=O)cc2)[nH]1 [Preparation Example 4, 4-(3-chlorophenyl)-2-methyl-5-(4-methylsulfonylphenyl)-1H-pyrrole] | 30.1% | > 100 µM | 164 nM | > 610
3 | Cc1cc(-c2ccc(F)cc2F)c(-c2ccc(S(C)(=O)=O)cc2)[nH]1 [Preparation Example 7, 4-(2,4-difluorophenyl)-2-methyl-5-(4-methylsulfonylphenyl)-1H-pyrrole] | 34.5% | 30.6 µM | 144 nM | 212
4 | Cc1cc(-c2ccc(F)c(F)c2)c(-c2ccc(S(C)(=O)=O)cc2)[nH]1 [Preparation Example 8, 4-(3,4-difluorophenyl)-2-methyl-5-(4-methylsulfonylphenyl)-1H-pyrrole] | 26.7% | 26.7 µM | 219 nM | > 457
5 | Cc1cc(-c2ccc(F)c(Cl)c2)c(-c2ccc(S(C)(=O)=O)cc2)[nH]1 [Preparation Example 10, 4-(3-chloro-4-fluorophenyl)-2-methyl-5-(4-methylsulfonylphenyl)-1H-pyrrole] | 25.7% | 84 µM | 274 nM | 307
6 | CCc1cc(-c2ccc(F)cc2)c(-c2ccc(S(C)(=O)=O)cc2)[nH]1 [Preparation Example 11, 2-ethyl-4-(4-fluorophenyl)-5-(4-methylsulfonylphenyl)-1H-pyrrole] | – | 9.9 µM | 84 nM | 118
7 | CSc1ccc(-c2cc(C)[nH]c2-c2ccc(S(C)(=O)=O)cc2)cc1 [Preparation Example 18, 4-(4-methylthiophenyl)-2-methyl-5-(4-methylsulfonylphenyl)-1H-pyrrole] | 48.9% | 12.6 µM | 123 nM | 102
8 | Cc1cc(-c2ccc(N(C)C)cc2)c(-c2ccc(S(C)(=O)=O)cc2)[nH]1 [Preparation Example 19, 4-(4-dimethylaminophenyl)-2-methyl-5-(4-methylsulfonylphenyl)-1H-pyrrole] | 43.2% | – | 747 nM | > 134
9 | Cc1cccc(-c2cc(C)[nH]c2-c2ccc(S(C)(=O)=O)cc2)c1 [Preparation Example 21, 4-(3-methylphenyl)-2-methyl-5-(4-methylsulfonylphenyl)-1H-pyrrole] | 31.6% | 39.2 µM | 129 nM | 304
10 | Cc1cc(-c2cccc(N(C)C)c2)c(-c2ccc(S(C)(=O)=O)cc2)[nH]1 [Preparation Example 23, 4-(3-dimethylaminophenyl)-2-methyl-5-(4-methylsulfonylphenyl)-1H-pyrrole] | – | – | 346 nM | > 289
11 | COc1ccc(-c2cc(C)[nH]c2-c2ccc(S(C)(=O)=O)cc2)cc1Cl [Preparation Example 28, 4-(3-chloro-4-methoxyphenyl)-2-methyl-5-(4-methylsulfonylphenyl)-1H-pyrrole] | – | – | 310 nM | > 323
12 | Cc1cc(-c2ccc(N(C)C)c(C)c2)c(-c2ccc(S(C)(=O)=O)cc2)[nH]1 [Preparation Example 32, 4-(4-N,N-dimethylamino-3-methylphenyl)-2-methyl-5-(4-methylsulfonylphenyl)-1H-pyrrole] | – | – | 442 nM | > 226
13 | Cc1cc(C#Cc2ccccc2)c(-c2ccc(S(C)(=O)=O)cc2)[nH]1 [Preparation Example 48, 4-phenylethynyl-2-methyl-5-(4-methylsulfonylphenyl)-1H-pyrrole] | 40.1% | – | 300 nM | > 339
14 | CS(=O)(=O)c1ccc(-c2[nH]c(CCC(=O)O)cc2-c2ccc(F)cc2)cc1 [Preparation Example 50, 4-(4-fluorophenyl)-5-(4-methylsulfonylphenyl)-1H-pyrrole-2-propionic acid] | 28.9% | – | 454 nM | > 220
15 | Cc1cc(-c2ccc(F)c(F)c2F)c(-c2ccc(S(C)(=O)=O)cc2)[nH]1 [Preparation Example 52, 4-(2,3,4-trifluorophenyl)-2-methyl-5-(4-methylsulfonylphenyl)-1H-pyrrole] | – | 50.4 µM | 110 nM | 458
16 | Cc1cc(F)cc(-c2cc(C)[nH]c2-c2ccc(S(C)(=O)=O)cc2)c1 [Preparation Example 53, 4-(3-fluoro-5-methylphenyl)-2-methyl-5-(4-methylsulfonylphenyl)-1H-pyrrole] | – | – | 162 nM | 617
